From ChEMBL document CHEMBL1201862, “PubChem BioAssay data set” (2004)
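Growth conditions: 96-well plates. Treatment: test compound, 48 hours, 5 concentrations. Analysis: linear interpolation between bracketing concentrations; unreached endpoints set to highest concentration. GI50 is the concentration that inhibits growth by half.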 Activity calls are given as the source filed them. No stated cut-off is given here; in the data, active = GI50 up to about 1.1 µM and inactive = higher.

What was measured:
Experiment in all cases: inhibition of tumour cell growth, NCI panel, 48 h
[1] = tested on: SR
[2] = tested on: CCRF-CEM
[3] = tested on: SF-295
[4] = tested on: A549
[5] = tested on: SK-MEL-28
[6] = tested on: OVCAR-8
[7] = tested on: OVCAR-5
[8] = tested on: RXF 393
[9] = tested on: LOX IMVI
[10] = tested on: 786-0
[11] = tested on: KM12
[12] = tested on: COLO 205
[13] = tested on: HCT-15
[14] = tested on: MDA-MB-231
[15] = tested on: NCI-H460
[16] = tested on: OVCAR-4
[17] = tested on: SNB-75
[18] = tested on: EKVX
[19] = tested on: NCI/ADR-RES

CN1CCN(C(=S)N(C(=O)c2ccc(Cl)cc2)c2ccccc2)CC1
GI50 [1]: > 100 µM (inactive)
GI50 [2]: > 10 µM (inactive)
GI50 [3]: > 100 µM (inactive)
GI50 [4]: > 100 µM (inactive)
GI50 [5]: > 100 µM (inactive)
GI50 [6]: > 100 µM (inactive)
GI50 [7]: > 100 µM (inactive)
GI50 [8]: > 100 µM (inactive)
GI50 [9]: > 100 µM (inactive)
GI50 [10]: > 100 µM (inactive)
GI50 [11]: > 100 µM (inactive)
GI50 [12]: > 100 µM (inactive)
GI50 [13]: > 100 µM
GI50 [14]: > 100 µM (inactive)
GI50 [15]: > 100 µM (inactive)
GI50 [16]: > 100 µM (inactive)
GI50 [17]: 41.8 µM (inactive)

O=C1CCCC2=C1C(c1ccc3c(c1)OCO3)Nc1ccc3ccccc3c12 (stereo not given)
GI50 [2]: > 100 µM (inactive)
GI50 [3]: > 100 µM (inactive)
GI50 [4]: > 100 µM (inactive)
GI50 [5]: > 100 µM (inactive)
GI50 [6]: 87.5 µM (inactive)
GI50 [7]: > 100 µM (inactive)
GI50 [8]: > 100 µM (inactive)
GI50 [18]: 36.9 µM (inactive)
GI50 [19]: 55.1 µM (inactive)
GI50 [10]: > 100 µM (inactive)
GI50 [11]: > 100 µM (inactive)
GI50 [12]: > 100 µM (inactive)
GI50 [13]: > 100 µM
GI50 [14]: > 100 µM (inactive)
GI50 [15]: > 100 µM (inactive)
GI50 [17]: > 100 µM (inactive)

c1ccc(NC2(c3nnnn3C3CCCCC3)CCNCC2)cc1
GI50 [1]: 17.5 µM (inactive)
GI50 [2]: 20.4 µM (inactive)
GI50 [3]: 17.9 µM (inactive)
GI50 [4]: 32.4 µM (inactive)
GI50 [5]: 17.9 µM (inactive)
GI50 [6]: 28.6 µM (inactive)
GI50 [7]: 14.9 µM (inactive)
GI50 [8]: > 10 µM (inactive)
GI50 [9]: 15.7 µM (inactive)
GI50 [18]: 20.7 µM (inactive)
GI50 [19]: 66.5 µM (inactive)
GI50 [10]: 15 µM (inactive)
GI50 [11]: 15.3 µM (inactive)
GI50 [12]: 19.8 µM (inactive)
GI50 [13]: 21.2 µM
GI50 [14]: 39.6 µM (inactive)
GI50 [15]: 15.2 µM (inactive)
GI50 [16]: 49.8 µM (inactive)
GI50 [17]: 14.9 µM (inactive)

Cc1cc(C)nc(NS(=O)(=O)c2ccc(Nc3nnc(/C=C/c4c(O)ccc5ccccc45)c(=O)n3N)cc2)n1
GI50 [1]: 18.8 µM (inactive)
GI50 [2]: 12 µM (inactive)
GI50 [3]: 61.1 µM (inactive)
GI50 [4]: 30.7 µM (inactive)
GI50 [6]: 25.7 µM (inactive)
GI50 [7]: 39.3 µM (inactive)
GI50 [8]: 18.6 µM (inactive)
GI50 [18]: 38.4 µM (inactive)
GI50 [19]: 20 µM (inactive)
GI50 [10]: 28.6 µM (inactive)
GI50 [13]: 10.9 µM
GI50 [16]: 22.5 µM (inactive)
GI50 [17]: 17.3 µM (inactive)

COc1cc(C(C)(C)C)c(OC(=O)/C=C/C(=O)O/C=C/[N+](=O)[O-])c(C(C)(C)C)c1
GI50 [1]: 63.8 µM (inactive)
GI50 [2]: 10.2 µM (inactive)
GI50 [3]: > 100 µM (inactive)
GI50 [4]: 21.4 µM (inactive)
GI50 [6]: 36.4 µM (inactive)
GI50 [7]: > 100 µM (inactive)
GI50 [8]: 27.6 µM (inactive)
GI50 [9]: 24.2 µM (inactive)
GI50 [18]: 69 µM (inactive)
GI50 [19]: 23.4 µM (inactive)
GI50 [10]: 34.4 µM (inactive)
GI50 [11]: 16.8 µM (inactive)
GI50 [12]: 42.9 µM (inactive)
GI50 [13]: 17.8 µM
GI50 [14]: 33.9 µM (inactive)
GI50 [15]: 66.4 µM (inactive)
GI50 [17]: > 100 µM (inactive)

Clc1ccc(-c2nc3ccc4ccccc4c3c3c2CCCC3)cc1
GI50 [2]: 68.4 µM (inactive)
GI50 [3]: > 100 µM (inactive)
GI50 [4]: 63.4 µM (inactive)
GI50 [5]: > 100 µM (inactive)
GI50 [6]: > 100 µM (inactive)
GI50 [7]: 1.55 µM (inactive)
GI50 [8]: > 100 µM (inactive)
GI50 [18]: 30.1 µM (inactive)
GI50 [19]: > 100 µM (inactive)
GI50 [10]: 75.2 µM (inactive)
GI50 [11]: > 100 µM (inactive)
GI50 [12]: > 100 µM (inactive)
GI50 [13]: 62.8 µM
GI50 [14]: > 100 µM (inactive)
GI50 [15]: 97.3 µM (inactive)
GI50 [17]: > 100 µM (inactive)

O=C1C=CC(=O)C2=C1[C@@H](O)C1CC=CC3C(=O)O[C@@H]2C31 (stereo not given in full)
GI50 [1]: 4.65 µM (inactive)
GI50 [2]: 8.2 µM (inactive)
GI50 [3]: 39.5 µM (inactive)
GI50 [4]: > 52.7 µM (inactive)
GI50 [5]: > 45.8 µM (inactive)
GI50 [6]: 39.5 µM (inactive)
GI50 [7]: 74.3 µM (inactive)
GI50 [8]: 18 µM (inactive)
GI50 [9]: 20.6 µM (inactive)
GI50 [18]: > 59.6 µM (inactive)
GI50 [10]: 26.2 µM (inactive)
GI50 [11]: 19.8 µM (inactive)
GI50 [12]: 20.3 µM (inactive)
GI50 [13]: 19.2 µM
GI50 [15]: > 55.8 µM (inactive)
GI50 [16]: 13.2 µM (inactive)
GI50 [17]: 24.9 µM (inactive)
